We go through one molecule from article PMC6532548, “Embelin, a Potent Molecule for Alzheimer's Disease: A Proof of Concept From Blood-Brain Barrier Permeability, Acetylcholinesterase Inhibition and Molecular Docking Studies” (Frontiers in Neuroscience, 2019).

This test deals with acetylcholinesterase (AChE) (Electrophorus electricus, UniProt O42275). As to the kind of experiment: Ellman's assay with electric eel AChE, acetylthiocholine iodide substrate. It is filed as biochemical.

pIC50: −log10 of the molar value.

acetylcholinesterase (AChE), sequence (O42275 24-633): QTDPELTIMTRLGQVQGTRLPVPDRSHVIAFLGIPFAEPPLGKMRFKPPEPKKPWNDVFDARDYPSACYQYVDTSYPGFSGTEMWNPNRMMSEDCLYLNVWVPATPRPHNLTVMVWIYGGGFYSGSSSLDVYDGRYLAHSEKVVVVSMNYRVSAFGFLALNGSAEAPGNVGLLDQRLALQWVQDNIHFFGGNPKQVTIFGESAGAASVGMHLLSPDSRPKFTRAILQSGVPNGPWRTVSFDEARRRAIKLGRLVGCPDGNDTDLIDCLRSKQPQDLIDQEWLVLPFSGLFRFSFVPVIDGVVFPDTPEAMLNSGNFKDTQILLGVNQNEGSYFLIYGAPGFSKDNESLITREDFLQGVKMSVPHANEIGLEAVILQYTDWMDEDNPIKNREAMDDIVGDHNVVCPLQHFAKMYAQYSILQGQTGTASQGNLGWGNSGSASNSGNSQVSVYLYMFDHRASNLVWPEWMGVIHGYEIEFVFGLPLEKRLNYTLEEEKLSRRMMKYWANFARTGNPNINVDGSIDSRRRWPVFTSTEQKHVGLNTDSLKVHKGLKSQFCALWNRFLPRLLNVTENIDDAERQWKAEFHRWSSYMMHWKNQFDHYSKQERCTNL

`CCCCCCCCCCCC1=C(O)C(=O)C=C(O)C1=O` [embelin, 2,5-dihydroxy-3-undecyl-1,4-benzoquinone]: the pIC50 was 3.77.

What is called pIC50 is −log10 of the IC50, conventionally taken in molar units. A high value points to a small IC50.
